The source of these data is publication PMC10138577, “Prenylated Flavonoids with Selective Toxicity against Human Cancers” (International Journal of Molecular Sciences, 2023).

The test system of experiment [1] is MV-4-11 human myelomonocytic leukemia cells. As to the kind of experiment: In vitro antiproliferative assay (MTT), MV-4-11. It counts as cell-based. Conditions: for IC50: Homo sapiens, MV4-11, MV-4-11, 72 h exposure, MTT, mean ± SD; for Calculated selectivity index SIB: IC50 BALB/3T3/IC50 MV-4-11; for Calculated selectivity index SIA: IC50 HLMEC/IC50 MV-4-11. From the text:
(§1) The following established in vitro cell lines were applied: human breast adenocarcinoma (MCF-7 and SK-BR-3), human breast ductal carcinoma (T47D), human prostate adenocarcinoma (PC-3), human prostate carcinoma (Du145), human colorectal adenocarcinoma (HT-29 and LoVo), doxorubicin-resistant human colorectal adenocarcinoma (LoVo/Dx), human myelomonocytic leukemia (MV-4-11), human lung adenocarcinoma (A549), normal murine embryonic fibroblasts (BALB/3T3) and human lung microvascular endothelial (HLMEC). All the cell lines were obtained from the American Type Culture Collection (Rockville, MD, USA) except for LoVo and LoVo/DX, which were received from the Technical University of Gdańsk, Poland, courtesy of Prof. E. Borowski. All the cell lines were maintained in the Institute of Immunology and Experimental Therapy, Wroclaw, Poland. The cells were cultured in the following media: DMEM medium (BALB/3T3), Eagle medium (MCF-7, SK-BR-3, Du145), RPMI medium (HLMEC, MV-4-11) or RPMI 1640 + Opti-MEM (1:1) medium (A549, T47D, LoVo, LoVo/Dx, PC-3, HT-29). The DMEM medium was supplemented with 2 mM L-glutamine and 10% fetal bovine serum. The Eagle medium was supplemented with 4 mM L-glutamine, 10% fetal bovine serum, 1 mM sodium pyruvate for Du145 cells or 2 mM L-glutamine, 1% amino acids and 0.8 mg L^−1 of insulin for MCF-7 and SK-BR-3. The RPMI medium was supplemented with 2 mM L-glutamine, 1 mM sodium pyruvate and 10% fetal bovine serum. The RPMI 1640 + Opti-MEM (1:1) medium was supplemented with 2 mM L-glutamine, 5% fetal bovine serum (PC-3, A549) and 0.8 mg L^−1 insulin (T47D) or 1 mM sodium pyruvate (HT-29, LoVo, LoVoDx) and 0.1 ug/mL doxorubicin (LoVo/Dx). The media contained antibiotics: 100 µg mL^−1 streptomycin and 100 U mL^−1 penicillin. All the cell lines were incubated at 37 °C in a humid atmosphere saturated with 5% CO2.
The details of this technique were described by Antoszczak et al.. The proliferation inhibition of human myelomonocytic leukemia (MV-4-11) by the tested compounds was measured using the MTT assay. Thus, 20 µL of 3-(4,5-dimethylthiazol-2-yl)-2,5-diphenyl tetrazolium bromide solution was added to each well. Then, the plates were incubated for 4 h in a cell incubator to allow the cells to metabolize the yellow MTT to blue formazan. Next, 80 µL of lysing mixture (consisting of 67.5 g sodium dodecyl sulfate, 225 mL dimethylformamide and 275 mL distilled water) was added to each well. The plates were incubated for 24 h for the formazan crystals to be released from the cells and dissolved, and then the absorbance of each well was read on a 96-well microtiter plate reader (Multiskan FC photometer (Thermo Scientific)) at a 570 nm wavelength.
(§2) Twenty-four hours before incubation with the tested compounds, the cells were seeded in 96-well plates (Sarstedt, Nümbrecht, Germany) at a density of 10^4 cells per well (10^3 cells per well for HLMEC) in 100 µL of culture medium. The analysis of the antiproliferative activity of the compounds was performed using sulforhothamine B (SRB) (for all the adherent cells) or 3-(4,5-dimethylthiazol-2-yl)-2,5-diphenyl tetrazolium bromide (MTT) (for the leukemia cells—MV-4-11). The details of this technique have been previously described by Skehan et al. and Antoszak et al.. An assay was performed after 72 h of exposure at varying concentrations (from 0.1 to 100 µg mL^−1) of xanthohumol (1), aurone (2) and the reference drug cisplatin. Each compound at each concentration was tested in a single experiment, which was repeated at least 3 times. […] The results were calculated as the IC50 (μM) (half maximal inhibitory concentration), i.e., the concentration of the tested agent that inhibits the proliferation of the cancer cell population by half. The IC50 values and the mean values ± SD calculated for each experiment separately using GraphPad Prism software (GraphPad Software 9.1.0, San Diego, CA, USA) are presented in Table S1 in the Supplementary Materials.

Experiment [2] concerns HT-29 human colorectal adenocarcinoma cells. The experiment is described as follows: In vitro antiproliferative assay (SRB), HT-29. It counts as cell-based. The note with it: for IC50: HT-29, 72 h exposure, SRB, mean ± SD; for Calculated selectivity index SIB: IC50 BALB/3T3/IC50 HT-29; for Calculated selectivity index SIA: IC50 HLMEC/IC50 HT-29.
Description: as §1
The details of this technique were described by Skehan et al.. After 72 h of incubation with the tested compounds, the cells were fixed in situ by gently adding cold 50% trichloroacetic acid—TCA (50 µL per well). The plates were incubated at 4 °C for 1 h and then washed five times with tap water and air-dried. Next, the cellular material fixed with TCA was stained by adding 50 µL of 0.4% sulforhodamine B dissolved in 1% acetic acid to each well and incubating the wells for 30 min at room temperature. The unbound dye was removed by washing the plates five times with 1% acetic acid, whereas the stain bound to the cells was extracted with 150 µL of 10 mM unbuffered Tris base for determination of the optical density at a 540 nm wavelength in a computer-interfaced, 96-well microtiter plate reader–Multiskan FC photometer (Thermo Scientific, Waltham, MA, USA). The background optical density was measured in the wells filled with culture medium, without the cells.
as §2, with “The IC50 values and the mean values ± SD calculated for each experiment separately using GraphPad Prism software (GraphPad Software 9.1.0, San Diego, CA, USA) are presented in Table S1 in the Supplementary Materials.” left out

Each structure is given as a SMILES string.

On to `COc1cc(O)c(CC=C(C)C)c(O)c1C(=O)/C=C/c1ccc(O)cc1` [compound 1, 3′-[3″,3″-dimethylallyl]-2′,4′,4-trihydroxy-6′-methoxychalcone], for which the IC50 in experiment [1] was 8.07 ± 0.52 µM; in experiment [2] (listed as xanthohumol (1)) it was 91.3 ± 8.92 µM; in experiment [2] (Homo sapiens, HT-29, 72 h), > 50 µM. Besides, the “Calculated selectivity index SIB” value was 2.43 in experiment [1] and 0.21 in experiment [2]. For the same compound, the “Calculated selectivity index SIA” value in experiment [1] is listed as 4.50; in experiment [2], 0.40.

For `COc1cc(O)c(CC=C(C)C)c2c1C(=O)/C(=C/c1ccc(O)cc1)O2` [compound 2, (Z)-6,4′-dihydroxy-4-methoxy-7-prenylaurone], the IC50 in experiment [1] was 7.45 ± 0.87 µM; in experiment [2] (listed as aurone (2)) it was 62.1 ± 16.5 µM; in experiment [2] (Homo sapiens, HT-29, 72 h), > 50 µM. For the same compound, the “Calculated selectivity index SIB” value in experiment [1] was 5.97; in experiment [2] it was 0.72. Further, the figures for the “Calculated selectivity index SIA” value in experiment [1] and in experiment [2] were 7.09 and 0.85, respectively.
